According to patent US12421206B2, “Aryl-n-aryl derivatives for treating a RNA virus infection” (ABIVAX, priority 2018, dated 2025):

Tested on: Chikungunya Virus (CHIKV) strain LR2006-OPY1 with GFP modification (CHIK 5'LR)
Assay: microbe, parasite or virus in culture
Assay type: cell-based
Conditions: HEK-293T, infected HEK293T cells; for inhibition at 1 µM: compounds at 1 μM, MOI 0.1, 22 h, mean of 2 experiments, values above 100 lowered to 100, read-out: % CHIKV Inhibition Mean (n = 2); for IC50: second round of experiments, range stated for listed compounds, read-out: IC50 (CHIKV inhibition)
Description: The ability of the compounds to inhibit viral replication was assessed with an experiment in which infected cells were treated by compounds of formula (Ie) at 1 μM. As a positive control for inhibition of Chikungunya, Ribavirin was used. Toxicity of the compounds was assessed in parallel.
Human embryonic kidney cells 293T (HEK293T, CRL-11268) were maintained in Dulbecco's modified Eagle's Medium (DMEM, 31966-021, Thermo Fisher Scientific) supplemented with 10% of fetal bovine serum (FBS), penicillin and streptomycin. After removal of the medium, cells were washed with Ca^2+ and Mg^2+-free salt solution to remove all traces of serum. After aspiration of wash solution, cells were dissociated with 0.25% Trypsin-EDTA solution and incubated 30 s at least in 37° C. incubator. Concentration of cell suspension was determined by an automatic cell counter (EVE, NanoEntek) and, if needed, adjusted to 0.33×10^6 cells/mL with DMEM medium supplemented with 10% FBS.
100 μL of the cell suspension were dispatched in a ViewPlate-96 Black (6005182, PerkinElmer) and in a transparent 96-well cell culture plate (655180, Greiner bio-one). After an incubation for 24 h at 37° C. under 5% of CO2, compounds were added at the proper concentration.
An intermediate dilution was prepared with DMSO (D8418, Sigma) at 2 mM in a 96-well V-bottom microplate from the stock solution:
Mix 1 μL of the 50 mM stock library in 25 μL of DMSO.
Mix 2 μL of the 25 mM stock library in 25 μL of DMSO.
An intermediate dilution was prepared with DMSO (D8418, Sigma) at 25 mM in a 96-well V-bottom microplate from the stock solution:
Mix 2 μL of the 50 mM stock library in 2 μL of DMSO.
Perform serial dilution in 2 μL of DMSO 13 times to reach 0.0015 mM. Proceed as follows in table III:
For both screen and determination of IC50, 1 μL of each solution was added in a 1 mL Masterblock 96 wells (Greiner bio-one, 780261) containing 1 mL of DMEM medium. As a positive control, 5 μL of a 80 mM Ribavirin solution (R9644, Sigma) is added to 1 mL of DMEM. On the other hand, DMSO is used as a negative control.
[…]. Vector Borne Zoonotic Dis. 2006; 6(4)). This modified virus was used to infect cells at MOI 0.1. […].
Medium was removed after 22 h at 37° C. under 5% of CO2 and cells were washed as described above. 60 μL of RIPA buffer (50 mM Tris-HCl pH8, 100 mM NaCl, 1 mM MgCl2, 1% Triton X-100) was added to cells and incubated for at least 20 min before reading fluorescence signal. Pierce 660 nm Protein Assay Reagent (22660, Thermo scientific) was used to normalize fluorescence signal by protein quantity.
• A first round of experiments has been performed wherein the results are expressed as inhibition percentage, which is calculated as follows, through the following steps: • 1. Fluorescence intensity (FI)/Absorbance 660 nm (A660)=A
This ratio allows considering the infection (GFP virus) to the protein amount. • 2. A′=A−background noise of non-infected plate, • 3. B=Fluorescence intensity (FI)/Absorbance 660 nm (A660) of infected but non treated plates, • 4. C=A′/B, which is then converted as the percentage of infection after treatment, compared to non-treated sample, and subsequently as the infection percentage. For instance, a value of 100 in Table IV here below means that, after treatment, the signal attributed to GFP fluorescence is abolished, which is correlated to the absence of infection. • 5. C′=100−C
This value corresponds to the inhibition's percentage.
The following Table IV encompasses said C′ value for some compounds, as calculated above with a mean of 2 experiments, and corresponding standard deviation.
Some values were originally above 100. In these cases, the value has been lowered to 100. This means that some molecules also have an impact on the viability of the cells. In other words, the A value may be lower than the background noise.
Moreover, for each measure, the test was performed with Ribavirin as control. The value of the inhibition percentage was checked, giving 100%.

| Compound | inhibition at 1 µM [%] | IC50 [nM] |
| --- | --- | --- |
| O=C(NCCC1CCCCC1)c1cccc(Nc2ccc(OCc3ccccn3)cc2)c1 [Compound 38, N-(2-cyclohexylethyl)-3-((4-(pyridin-2-ylmethoxy)phenyl)amino)benzamide] | 99 | – |
| Cc1cc(OCc2ccccn2)ccc1Nc1cccc(C(=O)NCCC2CC2)c1 [Compound 45, N-(2-cyclopropylethyl)-3-((2-methyl-4-(pyridin-2-ylmethoxy)phenyl)amino)benzamide] | 99 | – |
| Cc1cc(OCc2ccccn2)ccc1Nc1cccc(C(=O)NCCC2CCC2)c1 [Compound 46, N-(2-cyclobutylethyl)-3-((2-methyl-4-(pyridin-2-ylmethoxy)phenyl)amino)benzamide] | 99 | – |
| CCCC(C)NC(=O)c1cccc(Nc2ccc(OCc3ccccn3)cc2)c1 (centres unmarked) [Compound 64, N-(pentan-2-yl)-3-((4-(pyridin-2-ylmethoxy)phenyl)amino)benzamide] | – | 1 to 400 |
| Cc1cc(OCc2ccccn2)ccc1Nc1cccc(NC(=O)NCCC(C)C)c1 [Compound 68, 1-isopentyl-3-(3-((2-methyl-4-(pyridin-2-ylmethoxy)phenyl)amino)phenyl)urea] | – | 1 to 400 |
